From patent US20070128217A1 (priority 2003, published 2007)

Tests used:
[1] = system: antibodies in sera from SARS patients (sera 1a, 1b, 2, 6, 37, 62, London, SARS-yellow, SARS-green); assay type: binding, human; parameters: Binding of serum 6 to linear peptides of protein X1 of SARS-CoV Urbani / Binding of serum 37 to linear peptides of protein X1 of SARS-CoV Urbani / Binding of serum 6 to looped/cyclic peptide (PEPSCAN-ELISA) / Binding of serum 37 to looped/cyclic peptide (PEPSCAN-ELISA) / Binding of serum 37 to looped/cyclic peptides of protein X1 of SARS-CoV Urbani / Binding of serum 6 to linear peptides of protein X2 / Binding of serum 37 to linear peptides of protein X2 / Binding of serum 37 to looped/cyclic peptides of protein X2 of SARS-CoV Urbani / Binding of serum 6 to linear peptides of protein M of SARS-CoV Urbani / Binding of serum 37 to linear peptides of protein M of SARS-CoV Urbani / Binding of serum 6 to looped/cyclic peptides of protein M of SARS-CoV Urbani / Binding of serum 37 to looped/cyclic peptides of protein M of SARS-CoV Urbani / Binding of serum 6 to linear peptides of protein X3 of SARS-CoV Urbani / Binding of serum 37 to linear peptides of protein X3 of SARS-CoV Urbani / Binding of serum 37 to looped/cyclic peptides of protein X3 of SARS-CoV Urbani / Binding of serum 6 to linear peptides of protein X4 of SARS-CoV Urbani / Binding of serum 37 to linear peptides of protein X4 of SARS-CoV Urbani / Binding of serum 37 to looped/cyclic peptides of protein X4 of SARS-CoV Urbani / Binding of serum 6 to linear peptides of protein X5 of SARS-CoV Urbani / Binding of serum 37 to linear peptides of protein X5 of SARS-CoV Urbani / Binding of serum 37 to looped/cyclic peptides of protein X5 of SARS-CoV Urbani / Binding of serum 6 to linear peptides of protein N of SARS-CoV Urbani / Binding of serum 37 to linear peptides of protein N of SARS-CoV Urbani / Binding of serum 6 to linear peptide (PEPSCAN-ELISA) / Binding of serum 1a to looped/cyclic peptides of protein N of SARS-CoV Urbani / Binding of serum 1b to looped/cyclic peptides of protein N of SARS-CoV Urbani / Binding of serum 2 to looped/cyclic peptides of protein N of SARS-CoV Urbani / Binding of serum 6 to looped/cyclic peptides of protein N of SARS-CoV Urbani / Binding of serum 37 to looped/cyclic peptides of protein N of SARS-CoV Urbani / Binding of serum 62 to looped/cyclic peptides of protein N of SARS-CoV Urbani / Binding of serum London to looped/cyclic peptides of protein N of SARS-CoV Urbani / Binding of serum SARS-green to looped/cyclic peptides of protein N of SARS-CoV Urbani: unit not given here
[2] = system: control sera (pooled serum of ten healthy LUMC hospital workers; commercial negative donor pooled serum from the Dutch bloodbank); assay type: binding, human; parameters: Binding of Control serum LUMC to linear peptides / Binding of Control serum Blood-bank to linear peptides / Binding of Control serum LUMC to looped peptides / Binding of Control Serum Blood-Bank to Looped peptides / Binding of Control serum LUMC to linear peptides of the protein M of SARS-CoV Urbani / Binding of Control serum Blood-bank to linear peptides of the protein M of SARS-CoV Urbani / Binding of Control serum LUMC to looped peptides of the protein M of SARS-CoV Urbani / Binding of Control Serum Blood-Bank to Looped peptides of the protein M of SARS-CoV Urbani: unit not given here
[3] = system: rabbit serum obtained by immunizing a rabbit with the SARS-CoV strain Frankfurt 1; assay type: binding; parameters: Binding of a rabbit serum to linear peptides / Binding of a rabbit serum to looped peptides / Rabbit serum linear peptides / Rabbit serum looped peptides / Binding of a rabbit serum to linear peptides of protein N of SARS-CoV Urbani (Rabbit serum linear peptides) / Binding of a rabbit serum to looped/cyclic peptides of protein N of SARS-CoV Urbani (Rabbit serum looped peptides): unit not given here

QVTIAEILIIIMRTF
Binding of serum 1a to linear peptides of protein X3 of SARS-CoV Urbani [1]: 0.7
Binding of serum 1a to looped/cyclic peptides of protein X3 of SARS-CoV Urbani [1]: 0.7
Binding of serum 1b to linear peptides of protein X3 of SARS-CoV Urbani [1]: 0.4
Binding of serum 1b to looped/cyclic peptides of protein X3 of SARS-CoV Urbani [1]: 0.3
Binding of serum 2 to linear peptides of protein X3 of SARS-CoV Urbani [1]: 0.5
Binding of serum 2 to looped/cyclic peptides of protein X3 of SARS-CoV Urbani [1]: 0.5
Binding of serum 6 to linear peptides of protein X3 of SARS-CoV Urbani [1]: 0.5
Binding of serum 6 to looped/cyclic peptides of protein X3 of SARS-CoV Urbani [1]: 0.5
Binding of serum 37 to linear peptides of protein X3 of SARS-CoV Urbani [1]: 0.4
Binding of serum 37 to looped/cyclic peptides of protein X3 of SARS-CoV Urbani [1]: 0.6
Binding of serum 62 to linear peptides of protein X3 of SARS-CoV Urbani [1]: 0.7
Binding of serum 62 to looped/cyclic peptides of protein X3 of SARS-CoV Urbani [1]: 0.4
Binding of serum London to linear peptides of protein X3 of SARS-CoV Urbani [1]: 0.7
Binding of serum London to looped/cyclic peptides of protein X3 of SARS-CoV Urbani [1]: 0.2
Binding of serum SARS-green to linear peptides of protein X3 of SARS-CoV Urbani [1]: 0.4
Binding of serum SARS-green to looped/cyclic peptides of protein X3 of SARS-CoV Urbani [1]: 0.2
Binding of serum SARS-yellow to linear peptides of protein X3 of SARS-CoV Urbani [1]: 0.2
Binding of serum SARS-yellow to looped/cyclic peptides of protein X3 of SARS-CoV Urbani [1]: 0.7
Binding of Control Serum Blood-Bank to Looped peptides of the protein X3 of SARS-CoV Urbani [2]: 0.9
Binding of Control serum Blood-bank to linear peptides of the protein X3 of SARS-CoV Urbani [2]: 0.7
Binding of Control serum LUMC to linear peptides of the protein X3 of SARS-CoV Urbani [2]: 0.7
Binding of Control serum LUMC to looped peptides of the protein X3 of SARS-CoV Urbani [2]: 0.7
Rabbit serum linear peptides [3]: 0.3
Rabbit serum looped peptides [3]: 0.6

RARSVSPKLFIRQEE
Binding of serum 1a to linear peptides of protein X4 of SARS-CoV Urbani [1]: 0.8
Binding of serum 1a to looped/cyclic peptides of protein X4 of SARS-CoV Urbani [1]: 0.8
Binding of serum 1b to linear peptides of protein X4 of SARS-CoV Urbani [1]: 0.6
Binding of serum 1b to looped/cyclic peptides of protein X4 of SARS-CoV Urbani [1]: 0.7
Binding of serum 2 to linear peptides of protein X4 of SARS-CoV Urbani [1]: 0.4
Binding of serum 2 to looped/cyclic peptides of protein X4 of SARS-CoV Urbani [1]: 0.6
Binding of serum 6 to linear peptides of protein X4 of SARS-CoV Urbani [1]: 0.6
Binding of serum 6 to looped/cyclic peptides of protein X4 of SARS-CoV Urbani [1]: 0.8
Binding of serum 37 to linear peptides of protein X4 of SARS-CoV Urbani [1]: 0.7
Binding of serum 37 to looped/cyclic peptides of protein X4 of SARS-CoV Urbani [1]: 0.7
Binding of serum 62 to linear peptides of protein X4 of SARS-CoV Urbani [1]: 0.8
Binding of serum 62 to looped/cyclic peptides of protein X4 of SARS-CoV Urbani [1]: 0.7
Binding of serum London to linear peptides of protein X4 of SARS-CoV Urbani [1]: 0.8
Binding of serum London to looped/cyclic peptides of protein X4 of SARS-CoV Urbani [1]: 0.5
Binding of serum SARS-green to linear peptides of protein X4 of SARS-CoV Urbani [1]: 0.6
Binding of serum SARS-green to looped/cyclic peptides of protein X4 of SARS-CoV Urbani [1]: 0.7
Binding of serum SARS-yellow to linear peptides of protein X4 of SARS-CoV Urbani [1]: 0.1
Binding of serum SARS-yellow to looped/cyclic peptides of protein X4 of SARS-CoV Urbani [1]: 0.7
Binding of Control Serum Blood-Bank to Looped peptides [2]: 0.7
Binding of Control serum Blood-bank to linear peptides [2]: 0.6
Binding of Control serum LUMC to linear peptides [2]: 0.5
Binding of Control serum LUMC to looped peptides [2]: 0.8
Recognition of the peptide by the rabbit serum [3]: recognized

RCDIKDLPKEITVAT
Binding of serum 1a to linear peptides of protein M of SARS-CoV Urbani [1]: 0.7
Binding of serum 1a to looped/cyclic peptides of protein M of SARS-CoV Urbani [1]: 0.6
Binding of serum 1b to linear peptides of protein M of SARS-CoV Urbani [1]: 0.5
Binding of serum 1b to looped/cyclic peptides of protein M of SARS-CoV Urbani [1]: 0.4
Binding of serum 2 to linear peptides of protein M of SARS-CoV Urbani [1]: 0.5
Binding of serum 2 to looped/cyclic peptides of protein M of SARS-CoV Urbani [1]: 0.6
Binding of serum 6 to linear peptides of protein M of SARS-CoV Urbani [1]: 0.3
Binding of serum 6 to looped/cyclic peptides of protein M of SARS-CoV Urbani [1]: 0.6
Binding of serum 37 to linear peptides of protein M of SARS-CoV Urbani [1]: 0.5
Binding of serum 37 to looped/cyclic peptides of protein M of SARS-CoV Urbani [1]: 0.6
Binding of serum 62 to linear peptides of protein M of SARS-CoV Urbani [1]: 0.6
Binding of serum 62 to looped/cyclic peptides of protein M of SARS-CoV Urbani [1]: 0.6
Binding of serum London to linear peptides of protein M of SARS-CoV Urbani [1]: 0.3
Binding of serum London to looped/cyclic peptides of protein M of SARS-CoV Urbani [1]: 0.2
Binding of serum SARS-green to linear peptides of protein M of SARS-CoV Urbani [1]: 0.5
Binding of serum SARS-green to looped/cyclic peptides of protein M of SARS-CoV Urbani [1]: 0.4
Binding of serum SARS-yellow to linear peptides of protein M of SARS-CoV Urbani [1]: 0.2
Binding of serum SARS-yellow to looped/cyclic peptides of protein M of SARS-CoV Urbani [1]: 0.7
Binding of Control Serum Blood-Bank to Looped peptides of the protein M of SARS-CoV Urbani [2]: 0.6
Binding of Control serum Blood-bank to linear peptides of the protein M of SARS-CoV Urbani [2]: 0.7
Binding of Control serum LUMC to linear peptides of the protein M of SARS-CoV Urbani [2]: 0.5
Binding of Control serum LUMC to looped peptides of the protein M of SARS-CoV Urbani [2]: 0.7
Rabbit serum linear peptides [3]: 0.0
Rabbit serum looped peptides [3]: 0.3

RGNTYSTAWLCALGK
Binding of serum 1a to linear peptides of protein X5 of SARS-CoV Urbani [1]: 0.9
Binding of serum 1a to looped/cyclic peptides of protein X5 of SARS-CoV Urbani [1]: 0.4
Binding of serum 1b to linear peptides of protein X5 of SARS-CoV Urbani [1]: 0.6
Binding of serum 1b to looped/cyclic peptides of protein X5 of SARS-CoV Urbani [1]: 0.3
Binding of serum 2 to linear peptides of protein X5 of SARS-CoV Urbani [1]: 0.9
Binding of serum 2 to looped/cyclic peptides of protein X5 of SARS-CoV Urbani [1]: 0.6
Binding of serum 6 to linear peptides of protein X5 of SARS-CoV Urbani [1]: 0.7
Binding of serum 6 to looped/cyclic peptides of protein X5 of SARS-CoV Urbani [1]: 0.9
Binding of serum 37 to linear peptides of protein X5 of SARS-CoV Urbani [1]: 0.8
Binding of serum 37 to looped/cyclic peptides of protein X5 of SARS-CoV Urbani [1]: 0.5
Binding of serum 62 to linear peptides of protein X5 of SARS-CoV Urbani [1]: 0.8
Binding of serum 62 to looped/cyclic peptides of protein X5 of SARS-CoV Urbani [1]: 0.7
Binding of serum London to linear peptides of protein X5 of SARS-CoV Urbani [1]: 0.8
Binding of serum London to looped/cyclic peptides of protein X5 of SARS-CoV Urbani [1]: 1.4
Binding of serum SARS-green to linear peptides of protein X5 of SARS-CoV Urbani [1]: 0.6
Binding of serum SARS-green to looped/cyclic peptides of protein X5 of SARS-CoV Urbani [1]: 0.3
Binding of serum SARS-yellow to linear peptides of protein X5 of SARS-CoV Urbani [1]: 0.3
Binding of serum SARS-yellow to looped/cyclic peptides of protein X5 of SARS-CoV Urbani [1]: 0.5
Binding of Control Serum Blood-Bank to Looped peptides [2]: 0.4
Binding of Control serum Blood-bank to linear peptides [2]: 1.0
Binding of Control serum LUMC to linear peptides [2]: 0.6
Binding of Control serum LUMC to looped peptides [2]: 0.6
Rabbit serum linear peptides [3]: 1.3
Rabbit serum looped peptides [3]: 0.8

RGTIVTRPLMESELV
Binding of serum 1a to linear peptides of protein M of SARS-CoV Urbani [1]: 0.9
Binding of serum 1b to linear peptides of protein M of SARS-CoV Urbani [1]: 0.6
Binding of serum 2 to linear peptides of protein M of SARS-CoV Urbani [1]: 0.6
Binding of serum 6 to linear peptides of protein M of SARS-CoV Urbani [1]: 0.4
Binding of serum 37 to linear peptides of protein M of SARS-CoV Urbani [1]: 0.9
Binding of serum 62 to linear peptides of protein M of SARS-CoV Urbani [1]: 0.9
Binding of serum London to linear peptides of protein M of SARS-CoV Urbani [1]: 0.3
Binding of serum SARS-green to linear peptides of protein M of SARS-CoV Urbani [1]: 0.3
Binding of serum SARS-yellow to linear peptides of protein M of SARS-CoV Urbani [1]: 0.1
Recognition of the peptide by sera of SARS-CoV infected individuals, and form (linear, looped/cyclic) in which it is recognized [1]: recognized in looped/cyclic form
Binding of Control Serum Blood-Bank to Looped peptides of the protein M of SARS-CoV Urbani [2]: 0.6
Binding of Control serum Blood-bank to linear peptides of the protein M of SARS-CoV Urbani [2]: 0.7
Binding of Control serum LUMC to linear peptides of the protein M of SARS-CoV Urbani [2]: 0.4
Binding of Control serum LUMC to looped peptides of the protein M of SARS-CoV Urbani [2]: 0.8
Rabbit serum linear peptides [3]: 0.3
Rabbit serum looped peptides [3]: 0.3
